In series [1] the test system is acetic acid writhing reactions in rats. The experiment in a line: Writhing test in rats (acetic acid). Conditions: Rattus norvegicus, po, 1 h, read-out: Writhing test ID50. Here is the method:
(§1) Five minutes after treatment with acetic acid, total number of characteristic writhing reactions was counted for 10 minutes and expressed as percentage of the control group.
For orientation: An intraperitoneal irritant provokes the stretching counted in writhing tests.

For series [2], the system named is carrageenin-induced oedema in rats. Briefly: Carrageenin-induced oedema test in rats. It is filed as in vivo. The following applies: 3 h after carrageenin. On the procedure:
Inhibitory activity in carrageenin-induced oedema test was assessed in rats using the technique of Winter at al. (1962). Carageenin (0.1 ml of 1.0% solution) was injected into the plantar surface of the hind paw of rats weighing 130-160 g. Rats were fasted for 12 hours and received drinking water ad libitum. One hour before treatment with the test compound animals were hydrated orally with 30 ml/kg of tap water. The test compounds or the vehicle were administered p.o. in a volume of 10 ml/kg, then two hours later carrageenin was applied. The paw volume was determined in a plethysmometer prior to and 3 hours after administration of the irritant.
On the technique in general: Carrageenan injected into the paw causes an acute inflammation.

Series [3] concerns adjuvant arthritis in rats. The experiment in a line: Adjuvant arthritis in rats. It is filed as in vivo, Long Evans rats. Conditions: for Paw swelling, % Right: injected right hindpaw, day 10 (primary response); for % inhibition Left: left hindpaw, secondary response; for % inhibition Right: right hindpaw, primary response; for Paw swelling, % Left: uninjected left hindpaw, day 15 (secondary response).

A short description of series [4]: Chemiluminescence induced by H2O2 in cell free medium.
Series [5] concerns acetic-acid writhing reactions in mice. The experiment in a line: animal or person. It is filed as in vivo. The following applies: Mus musculus, po, 1 h, read-out: Writhing test ID50. Here is the method:
(§2) Between the 5th and 10th minute after the administration of acetic acid total number of the typical writhing reactions was counted, and expressed as percentage of the control. The experiments were performed in groups of at least 12 mice; measurements were done 60 min. after oral application of the test compounds.

The test system of series [6] is gastric secretion in rats. Briefly: Effect on gastric secretion in rats (Shay, pylorus ligation). It is filed as in vivo, Wistar rats. Conditions: for Gastric juice / Free acid content / Total acid content: per 100 g body weight; for Free acid content / Total acid content: titration with 0.1 N NaOH. On the procedure:
The experiments were carried out following the surgical method of Shay et al. (1946). Fasted Wistar rats weighing 200-250 g were used. During a 48 hours, starving period rats received drinking water ad libitum. The experimental groups consisted of 4 males and 4 females.
On the day of experiment the pylorus of rats was ligated under ether anaesthesia. […] The control groups were treated simultaneously with identical volumes of vehicle in identical route of administration.
Four hours after operation rats were killed with ether, their stomach was removed after cardia ligature, the stomach contents were separated and after centrifugation the volume of the gastric juice was measured. The free acid and total acid content were assayed by titration with 0.1 N NaOH.
The results were individually transformed for 100 g body weight and statistically evaluated by Wilcoxon's method.

The subject of series [7] is PHA stimulated granulocytes. The experiment in a line: Chemiluminescence of PHA stimulated granulocytes. Type of series: cell-based, human (healthy volunteers). Conditions: Homo sapiens, read-out: IC50, chemiluminescence of PHA stimulated granulocytes. On the procedure:
(§3) Heparinized blood (10 IU/ml) was taken from healthy volunteers. The blood diluted with equal volume of dextran, the white blood cells were separated by sedimentation. The granulocytes were separated by Uromio gradient. […] The cell suspension was put in dark box for 15 min. Luminol was dissolved in concentrated NH4 OH and diluted in the following solution:
(§4) 50 ml Tris-Parker medium (containing 1.2 g Tris, pH=7.4)
(§5) 4 ml glucose 40% w/v in water
(§6) The Luminol solution (500 μl) was measured in plastic vials and put in dark (37° C.). The reaction was started by addition of the cells and stimulating agent (Phytohaemaglutinin-PHA 10 μg/ml).
(§7) The vials were continuously and gently shaken and the PHA stimulation was measured in every 2.5 min. for 15 min. in a Beckmann LS-100 spectrometer (coincidence switched off). The percentage of the counts measured was calculated in comparison with the solvent treated control cells. At least 5 concentrations of each compound were investigated in at least 3 parallels.

Series [8] deals with brewer's yeast induced fever in rats. The experiment in a line: Antipyretic activity in rats (brewer's yeast fever). Type of series: in vivo, Wistar rats. On the procedure:
The experiments were performed in groups of 10 Wistar rats of both sexes weighing 160-200 g. Fever was induced by 20% brewer's yeast suspended in 0.9% saline solution, applied subcutaneously in a volume of 2 ml/rat distributed at various sites of the back. After 18 hours the test compound or the vehicle was administered in a volume of 10 ml/kg p.o. During this period the rats were fasted but received drinking water ad libitum. The rectal temperature of the animals was measured with a Thermotest thermometer 2 days before injection of the fever inducer, then before the application of the test compound and after treatment in every 60th min. Animals with increase in body temperature less than 0.8° C. were excluded. The results were evaluated according to the statistical method of Duncan.

A short description of series [9]: in vivo. It is filed as in vivo. The following applies: mouse, in vivo, po; mice, LD50/writhing ID50; read-out: TI (therapeutic index). Here is the method: as §2
The nature of series [10]: in vivo. Conditions: mouse, po. On the procedure:
The observation period after treatment lasted for 14 days.
Statistical evaluation was carried out as described by Litchfield-Wilcoxon's method.

The subject of series [11] is mononuclear cells. The experiment in a line: Chemiluminescence of PHA stimulated mononuclear cells. Type of series: cell-based, human (healthy volunteers). Here is the method:
as §3, §4, §5, §6, §7

Series [12] has as its system gastric mucosa of rats. Briefly: Measurement of ulcerogenic activity. It is filed as in vivo.
For series [13], the system named is Wistar rats. Conditions: from Barron et al. 1968, 20160 min; cited from earlier work.
Series [14] can be described thus: Writhing test in rats (acetic acid). The following applies: rat, in vivo, po. On the procedure:
as §1

[15] abbreviates: 200 mg/kg p.o., 1 hour following treatment.
[16] abbreviates: 200 mg/kg p.o., 3 hours following treatment.
Where [17] appears, read: 200 mg/kg p.o., 5 hours following treatment.

Each structure is given as a SMILES string. pIC50: −log10 of the molar value. Where two headings read alike, the source gives them in different places. Some results are limits rather than exact numbers.

In the case of `COc1ccc(Cc2cnc(N)nc2N)cc1OC` [Compound A, 2,4-diamino-5-(3,4-dimethoxybenzyl)-pyrimidine], the ED50 in series [1] amounted to 36 mg/kg; in series [5] it was 141 mg/kg. Also, the “% inhibition of carrageenin-induced oedema” value in series [2] (125 mg/kg p.o.) is 42.0%. Further, the “Paw swelling, % Right” value in series [3] (100 mg/kg p.o. once daily) is reported as 56.9%. The “% inhibition Left” value in [3] (100 mg/kg p.o. once daily) is recorded as -47.1%. For the same compound, the “% inhibition Right” value in series [3] (100 mg/kg p.o. once daily) is -51.4%. For the same compound, the “Paw swelling, % Left” value in [3] (100 mg/kg p.o. once daily) came out at 38.5%. Also, the “Influence on chemiluminescence induced by H2O2” value in series [4] was “did not influence”. Moreover, the Gastric juice in [6] (250 mg/kg orally) was found to be 3.01 mL; in series [6] (500 mg/kg orally), 2.93 mL; in [6] (1000 mg/kg orally), 2.23 mL. In addition, the Free acid content in series [6] (250 mg/kg orally) amounted to 2.17 mL; in [6] (500 mg/kg orally), 2.18 mL; in series [6] (1000 mg/kg orally), 1.24 mL. In addition, the Total acid content in series [6] (250 mg/kg orally) turned out to be 4.33 mL; in series [6] (500 mg/kg orally), 4.40 mL; in series [6] (1000 mg/kg orally), 3.18 mL. Moreover, the inhibition at 250 mg/kg in series [6] (Rattus norvegicus, 250 mg/kg, + = increase, - = decrease, read-out: % inhibition compared to the control, Gastric juice) was 17.3%; in series [6] (Rattus norvegicus, 250 mg/kg, read-out: % inhibition compared to the control, Total acid content), 11.8%. In [6] (Rattus norvegicus, 250 mg/kg, read-out: % inhibition compared to the control, Free acid content), the Percent change from control (+ = increase, - = decrease) at 250 mg/kg is -23%. The inhibition at 500 mg/kg in series [6] (Rattus norvegicus, 500 mg/kg, + = increase, - = decrease, read-out: % inhibition compared to the control, Gastric juice) turned out to be 15.2%; in series [6] (Rattus norvegicus, 500 mg/kg, read-out: % inhibition compared to the control, Total acid content) it was 16.5%. For the same compound, the Percent change from control (+ = increase, - = decrease) at 500 mg/kg in series [6] (Rattus norvegicus, 500 mg/kg, read-out: % inhibition compared to the control, Free acid content) was -19.1%. The inhibition at 1000 mg/kg in [6] (Rattus norvegicus, 1000 mg/kg, + = increase, - = decrease, read-out: % inhibition compared to the control, Gastric juice) was -14%; in [6] (Rattus norvegicus, 1000 mg/kg, read-out: % inhibition compared to the control, Total acid content), -20.1%. The Percent change from control (+ = increase, - = decrease) at 1000 mg/kg in series [6] (Rattus norvegicus, 1000 mg/kg, p < 0.05, read-out: % inhibition compared to the control, Free acid content) was -58.1%. For the same compound, in series [6] (doses 250-1000 mg/kg), the “Effect on gastric secretion (in words)” value is given as “did not change the gastric secretion except in very high doses”. Further, the pIC50 in series [7] is 7.00. Besides, the “Antipyretic activity (in words)” value in [8] was “significant antipyretic activity”. The “Decrease in body temperature” value in [8] (100 mg/kg p.o., 1 hour following treatment) was determined as 1.5 °C; in [8] (100 mg/kg p.o., 3 hours following treatment), 2.0 °C; in series [8] (100 mg/kg p.o., 5 hours following treatment) it was 1.7 °C; in [8] (setting [15]) it was 1.5 °C; in [8] (setting [16]) it was 2.4 °C; in series [8] (setting [17]), 1.6 °C.
As to `CC(=O)Oc1ccccc1C(=O)O` [Acetylsalicylic acid], the “% inhibition of carrageenin-induced oedema” value in series [2] (100 mg/kg p.o.) was 29.5%. Further, in series [5], the ED50 is 261 mg/kg. The selectivity ratio in series [9] stood at 5.2. Moreover, the LD50 at 336 h in series [10] is 1350 mg/kg. Moreover, the “Decrease in body temperature” value in [8] (setting [15]) was 0.7 °C; in series [8] (setting [16]), 1.0 °C; in series [8] (setting [17]), 1.0 °C.
For `CCCCC1C(=O)N(c2ccccc2)N(c2ccccc2)C1=O` [Phenylbutazone, 3,5-dioxo-1,2-diphenyl-4-(n-butyl)-pyrazolidine], the ED50 in series [1] was determined as 19.7 mg/kg. Also, the “% inhibition of carrageenin-induced oedema” value in series [2] (25 mg/kg p.o.) was determined as 56.6%. Also, in series [3] (30 mg/kg p.o. once daily), the “Paw swelling, % Right” value came to 94.6%; the “% inhibition Left” value is -49.6%; the “% inhibition Right” value was -19.2%; the “Paw swelling, % Left” value was 36.7%. Moreover, the “Activity on chemiluminescence in mononuclear cells” value in [11] was “inactive”. In addition, the ED50 in [5] lay in the range of 100 to 200 mg/kg. In addition, the pIC50 in [7] (PHA 10 μg/ml, Luminol 32 μM) was 4.00.
As to `COc1ccc2c(c1)c(CC(=O)O)c(C)n2C(=O)c1ccc(Cl)cc1` [Indomethacin, 1-(p-chloro-benzoyl)-5-methoxy-2-methyl-1H-indole-3-acetic acid], the Ulcus-index was found to be 0.2 in series [12] (5 mg/kg orally 6 and 16 h before decapitation); 1.2 in series [12] (10 mg/kg orally 6 and 16 h before decapitation); 3.0 in [12] (20 mg/kg orally 6 and 16 h before decapitation). For the same compound, the “Effect on ulcus-index (in words)” value in [12] (oral, over the doses of Table 4) is reported as “increases does dependently the ulcus-index”. Further, the LD50 in series [13] was 25.5 mg/kg. For the same compound, the selectivity ratio in [14] came out at 5.4. In series [1], the ED50 stood at 4.7 mg/kg. In addition, the “% inhibition of carrageenin-induced oedema” value in [2] (1 mg/kg p.o.) amounted to 40.3%. Moreover, the pIC50 in [7] is below 4.00.
For `CC(=O)Nc1ccc(O)cc1` [Paracetamol, 4-hydroxy-acetanilide], in [5], the ED50 is 180 mg/kg.
On to `CN1C(C(=O)Nc2ccccn2)=C(O)c2ccccc2S1(=O)=O` [Piroxicam, 4-hydroxy-2-methyl-N-2-pyridyl-2H-1,2-benzothiazine-3-carboxamide-1,1-dioxide], for which the “Activity on chemiluminescence in mononuclear cells” value in [11] is “inactive”. The negative-log IC50 (pIC50) in series [7] (PHA 10 μg/ml, Luminol 32 μM) was 4.00.
Regarding `Cc1c(N(C)C)c(=O)n(-c2ccccc2)n1C` [Amidazophen, 1-phenyl-2,3-dimethyl-4-dimethylamino-pyrazolone-5, reference compound], the “Decrease in body temperature” value in [8] (setting [15]) came to 2.7 °C; in [8] (setting [16]), 2.3 °C; in [8] (setting [17]), 1.7 °C.

Broadly, the inhibition is the change of the read-out against control, counted positive when it falls. What is called pIC50 is the IC50 on a negative log10 scale, so that one unit is a factor of ten. As usually defined, the LD50 is the dose expected to kill half of the subjects tested.

Source of the values: patent US4873249A, “Pharmaceutical composition” (EGIS Gyogyszergyar, priority 1986, dated 1989).
